Laboratory results taken from patent US20260176254A1, “INHIBITORS OF PROSTATE SPECIFIC MEMBRANE ANTIGEN AND USE THEREOF” (SHANGHAI SINOTAU BIOTECH. CO., LTD, priority 2023, published 2026).
pIC50: −log10 of the molar value.

Key:
[1] = target: T1, recombinant human PSMA (rhPSMA) (Homo sapiens, UniProt Q04609); test: Naaladase assay (fluorescence-based Naaladase activity inhibition); assay type: biochemical; settings: rhPSMA 0.4 μg/mL, substrate N-Acetyl-Asp-Glu 40 μM, 37° C. one hour
T1 construct: purchased Sino Biological
T1 sequence (Q04609 whole entry): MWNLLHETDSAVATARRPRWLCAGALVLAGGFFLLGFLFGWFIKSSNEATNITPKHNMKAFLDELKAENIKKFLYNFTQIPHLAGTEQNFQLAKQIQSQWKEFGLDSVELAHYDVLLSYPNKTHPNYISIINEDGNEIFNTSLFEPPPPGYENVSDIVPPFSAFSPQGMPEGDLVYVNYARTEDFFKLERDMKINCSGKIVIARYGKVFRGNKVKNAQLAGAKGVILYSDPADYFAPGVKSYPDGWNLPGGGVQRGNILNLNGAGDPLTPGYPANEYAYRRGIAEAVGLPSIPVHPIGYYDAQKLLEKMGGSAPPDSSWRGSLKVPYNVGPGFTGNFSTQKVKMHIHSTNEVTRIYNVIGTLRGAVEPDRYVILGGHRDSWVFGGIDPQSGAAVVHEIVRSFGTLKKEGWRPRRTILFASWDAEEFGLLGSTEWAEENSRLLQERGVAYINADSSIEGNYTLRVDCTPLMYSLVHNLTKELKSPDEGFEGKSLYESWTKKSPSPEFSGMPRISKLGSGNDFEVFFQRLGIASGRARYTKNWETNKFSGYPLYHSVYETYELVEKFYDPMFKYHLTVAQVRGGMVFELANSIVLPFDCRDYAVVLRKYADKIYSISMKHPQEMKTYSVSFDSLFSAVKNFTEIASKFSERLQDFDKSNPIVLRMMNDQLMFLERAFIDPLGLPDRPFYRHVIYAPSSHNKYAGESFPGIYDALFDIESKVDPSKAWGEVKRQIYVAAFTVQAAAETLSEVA
Procedure: Naaladase activity inhibition was determined using a fluorescence-based assay. Briefly, the solution containing the substrate N-Acetyl-Asp-Glu (Sigma-Aldrich) at 40 μM and the compound at concentrations from 0.15 nM to 1000 nM was mixed at equal volume with recombinant human PSMA (rhPSMA, Sino Biological) at 0.4 μg/mL, in assay buffer (50 mM HEPES, 100 mM NaCl, pH 7.5). The enzymatic reaction was proceeded by incubation at 37° C. for one hour and then stopped by heating at 95° C. for 5 minutes. A solution of 15 mM ortho-phthaldialdehyde (Sigma-Aldrich) was added to all vials and incubated for 10 min at ambient temperature. The reaction solutions were loaded onto a 96-well flat clear bottom black microplates (Corning) and read at excitation and emission wavelengths of 330 and 450 nm, respectively, using a microplate reader (Tecan). The data were analyzed by a one-site total binding regression algorithm of GraphPad Prism (GraphPad Software).

LNCaP cells = test: Cell uptake assay of 177Lu-labeled compound; assay type: cell-based; settings: for Membrane (%): cell membrane fraction; for Intracellular (%): intracellular fraction
Procedure: LNCaP (ATCC) cells were cultured in RPMI 1640 medium (Gibco) containing 10% fetal bovine serum (FBS) (Gibco), in 5% carbon dioxide (CO2), at 37.0° C. in a humidified incubator. 2×10^5 LNCaP cells/well were seeded in a 24-well plate the day before experiment. 7.4 KBq (200 nCi) of ^177Lu-labeled compound was added into each well, and then incubated in 37° C., 5% CO2 incubator for varying durations. At each time point, the supernatant, cell membrane and intracellular fractions were collected. The cell membrane fraction was recovered by incubating cells with buffer containing 50 mM glycine and 100 mM NaCl, pH 2.7 for 10 minutes at 37° C., while the intracellular fraction was recovered from cells treated with 1M NaOH. Activity of ^177Lu-labelled compound in every component was detected by gamma counter.

Compound: O=C(O)CN1CCN(CC(=O)O)CCN(Cc2nnc([C@H]3CC[C@H](Nc4c(N[C@@H](Cc5c6ccccc6cc6ccccc56)C(=O)NCCCC[C@H](NC(=O)N[C@@H](CNC(=O)C(=O)O)C(=O)O)C(=O)O)c(=O)c4=O)CC3)o2)CCN(CC(=O)O)CC1 [E10]
- pIC50 [1]: 8.77
- Membrane (%) (LNCaP cells; 1 hr): 7.1%
- Membrane (%) (LNCaP cells; 4 hr): 10.5%
- Membrane (%) (LNCaP cells; 24 hr): 11.0%
- Intracellular (%) (LNCaP cells; 1 hr): 16.9%
- Intracellular (%) (LNCaP cells; 4 hr): 50.2%
- Intracellular (%) (LNCaP cells; 24 hr): 76.7%

Compound: O=C(O)CN1CCN(CC(=O)O)CCN(CC(=O)N[C@H]2CC[C@H](Nc3c(N[C@@H](Cc4c5ccccc5cc5ccccc45)C(=O)NCCCC[C@H](NC(=O)N[C@@H](CNC(=O)C(=O)O)C(=O)O)C(=O)O)c(=O)c3=O)CC2)CCN(CC(=O)O)CC1 [E12]
- pIC50 [1]: 9.05
- Membrane (%) (LNCaP cells; 1 hr): 11.1%
- Membrane (%) (LNCaP cells; 4 hr): 18.0%
- Membrane (%) (LNCaP cells; 24 hr): 12.7%
- Intracellular (%) (LNCaP cells; 1 hr): 7.3%
- Intracellular (%) (LNCaP cells; 4 hr): 24.3%
- Intracellular (%) (LNCaP cells; 24 hr): 41.4%

Compound: O=C(O)CCC[C@H](NC(=O)N[C@@H](CCCCNC(=O)[C@H](Cc1c2ccccc2cc2ccccc12)Nc1c(Nc2ccc3c(c2)CN(C(=O)CN2CCN(CC(=O)O)CCN(CC(=O)O)CCN(CC(=O)O)CC2)CC3)c(=O)c1=O)C(=O)O)C(=O)O [E13]
- pIC50 [1]: 8.77
- Membrane (%) (LNCaP cells; 1 hr): 8.3%
- Membrane (%) (LNCaP cells; 4 hr): 13.8%
- Membrane (%) (LNCaP cells; 24 hr): 7.1%
- Intracellular (%) (LNCaP cells; 1 hr): 6.9%
- Intracellular (%) (LNCaP cells; 4 hr): 23.0%
- Intracellular (%) (LNCaP cells; 24 hr): 43.3%

Compound: O=C(O)CCC[C@H](NC(=O)N[C@@H](CCCCNC(=O)[C@H](Cc1c2ccccc2cc2ccccc12)Nc1c(Nc2ccc3c(c2)CCN(C(=O)CN2CCN(CC(=O)O)CCN(CC(=O)O)CCN(CC(=O)O)CC2)C3)c(=O)c1=O)C(=O)O)C(=O)O [E14]
- pIC50 [1]: 8.77
- Membrane (%) (LNCaP cells; 1 hr): 9.7%
- Membrane (%) (LNCaP cells; 4 hr): 14.8%
- Membrane (%) (LNCaP cells; 24 hr): 12.9%
- Intracellular (%) (LNCaP cells; 1 hr): 7.9%
- Intracellular (%) (LNCaP cells; 4 hr): 25.1%
- Intracellular (%) (LNCaP cells; 24 hr): 49.5%

Compound: O=C(O)CC[C@H](NC(=O)N[C@@H](CCCCNC(=O)[C@H](Cc1c2ccccc2cc2ccccc12)Nc1c(NC23CCC(NC(=O)CN4CCN(CC(=O)O)CCN(CC(=O)O)CCN(CC(=O)O)CC4)(CC2)CC3)c(=O)c1=O)C(=O)O)C(=O)O [E15]
- pIC50 [1]: 9.10
- Membrane (%) (LNCaP cells; 1 hr): 14.1%
- Membrane (%) (LNCaP cells; 4 hr): 27.3%
- Membrane (%) (LNCaP cells; 24 hr): 23.8%
- Intracellular (%) (LNCaP cells; 1 hr): 9.6%
- Intracellular (%) (LNCaP cells; 4 hr): 30.4%
- Intracellular (%) (LNCaP cells; 24 hr): 58.4%

Compound: O=C(O)CCC[C@H](NC(=O)N[C@@H](CCNC(=O)[C@H](Cc1c2ccccc2cc2ccccc12)NC(=O)[C@H]1CC[C@H](CNC(=O)CN2CCN(CC(=O)O)CCN(CC(=O)O)CCN(CC(=O)O)CC2)CC1)C(=O)O)C(=O)O [HTK03149, reference compound]
- pIC50 [1]: 8.80
- Membrane (%) (LNCaP cells; 1 hr): 2.9%
- Membrane (%) (LNCaP cells; 4 hr): 3.8%
- Membrane (%) (LNCaP cells; 24 hr): 5.7%
- Intracellular (%) (LNCaP cells; 1 hr): 2.8%
- Intracellular (%) (LNCaP cells; 4 hr): 7.4%
- Intracellular (%) (LNCaP cells; 24 hr): 19.3%

Compound: O=C(O)CC[C@H](NC(=O)N[C@@H](CCCCNC(=O)[C@H](Cc1ccc2ccccc2c1)NC(=O)[C@H]1CC[C@H](CNC(=O)CN2CCN(CC(=O)O)CCN(CC(=O)O)CCN(CC(=O)O)CC2)CC1)C(=O)O)C(=O)O [PSMA-617, reference compound]
- pIC50 [1]: 8.62
- Membrane (%) (LNCaP cells; 1 hr): 2.1%
- Membrane (%) (LNCaP cells; 4 hr): 4.8%
- Membrane (%) (LNCaP cells; 24 hr): 4.7%
- Intracellular (%) (LNCaP cells; 1 hr): 3.0%
- Intracellular (%) (LNCaP cells; 4 hr): 9.5%
- Intracellular (%) (LNCaP cells; 24 hr): 22.4%
